Test results published in patent US20060167019A1, “Fungicidal mixtures based on a trizolopyrimidine derivative” (priority 2003, published 2006).

Tested on: Plasmopara viticola
Test: Activity against peronospora of grapevines caused by Plasmopara viticola (protective spray on potted vines)
Format: in vivo
Details: individual active compound, potted vines cultivar Müller-Thurgau, untreated control 84% infection
Description: The active compounds, separately or jointly, were prepared as a stock solution comprising 0.25% by weight of active compound in acetone or DMSO. 1% by weight of the emulsifier Uniperol® EL (wetting agent having emulsifying and dispersant action based on ethoxylated alkylphenols) was added to this solution, and the mixture was diluted with water to the desired concentration.
Leaves of potted vines of the cultivar “Müller-Thurgau” were sprayed to runoff point with an aqueous suspension having the concentration of active compound stated below. The next day, the undersides of the leaves were inoculated with an aqueous zoospore suspension of Plasmopara viticola. The grapevines were then initially placed in a water-vapor-saturated chamber at 24° C. for 48 hours and then in a greenhouse at 20-30° C. for 5 days. After this period of time, the plants were again placed in a humid chamber for 16 hours to promote sporangiophore eruption. The extent of the development of the disease on the undersides of the leaves was then determined visually.
The visually determined percentages of infected leaf areas were converted into efficacies in % of the untreated control:
The efficacy (E) is calculated as follows using Abbot's formula: E=(1−α/β)−100 α corresponds to the fungicidal infection of the treated plants in % and β corresponds to the fungicidal infection of the untreated (control) plants in %
An efficacy of 0 means that the infection level of the treated plants corresponds to that of the untreated control plants; an efficacy of 100 means that the treated plants are not infected.
The expected efficacies of mixtures of active compounds were determined using Colby's formula (Colby, S. R. “Calculating synergistic and antagonistic responses of herbicide combinations”, Weeds, 15, 20-22, 1967) and compared with the observed efficacies.
Colby's formula: E=x+y−x·y/100 • E expected efficacy, expressed in % of the untreated control, when using the mixture of the active compounds A and B at the concentrations a and b • x efficacy, expressed in % of the untreated control, when using the active compound A at the concentration a • y efficacy, expressed in % of the untreated control, when using the active compound B at the concentration b

Row | SMILES | Efficacy in % of the untreated control (0.25 ppm in the spray liquor) | Efficacy in % of the untreated control (1 ppm in the spray liquor)
1 | CC1CCN(c2c(-c3c(F)cccc3Cl)c(Cl)nc3ncnn23)CC1 [Comparison A] | 0% | 0%
2 | C[C@H](Nc1c(-c2c(F)cc(F)cc2F)c(Cl)nc2ncnn12)C(F)(F)F [Comparison B] | 5% | 17%
3 | CC1CCN(c2c(-c3c(F)cc(F)cc3F)c(Cl)nc3ncnn23)CC1 [I, 5-chloro-7-(4-methylpiperidin-1-yl)-6-(2,4,6-trifluorophenyl)-[1,2,4]triazolo[1,5-a]pyrimidine] | 0% | 17%
